#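 Growth conditions: 96-well plates. Treatment: test compound, 48 hours, 5 concentrations. Analysis: linear interpolation between bracketing concentrations; unreached endpoints set to highest concentration. GI50 = concentration required for 50% inhibition of growth. TGI marks complete inhibition of growth.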
# Experiments:
# Test in all cases: NCI tumour cell line growth inhibition, 48 h
# [1] = tested on: SW-620 colon
# [2] = tested on: HL-60(TB) leukemia
# [3] = tested on: HCT-15 colon
# [4] = tested on: M14 melanoma
# [5] = tested on: MDA-MB-231 breast
# [6] = tested on: NCI-H226 lung
# [7] = tested on: SNB-75 CNS
# [8] = tested on: UACC-62 melanoma
# [9] = tested on: K-562 leukemia
# [10] = tested on: SN12C renal
# [11] = tested on: OVCAR-3 ovarian
# [12] = tested on: HT29 colon
# [13] = tested on: NCI-H23 lung
# [14] = tested on: 786-0 renal
# [15] = tested on: TK-10 renal
# [16] = tested on: PC-3 prostate
# [17] = tested on: NCI/ADR-RES ovarian
# [18] = tested on: ACHN renal
# [19] = tested on: OVCAR-4 ovarian
# [20] = tested on: T-47D breast
# [21] = tested on: HOP-62 NSCLC
# [22] = tested on: LOX IMVI melanoma
# [23] = tested on: SF-539 CNS
# [24] = tested on: SF-268 CNS
# [25] = tested on: BT-549 breast
# [26] = tested on: A498 renal
# [27] = tested on: SNB-19 CNS
# [28] = tested on: DU-145 prostate
# [29] = tested on: SF-295 CNS
# [30] = tested on: OVCAR-5 ovarian
# [31] = tested on: SK-MEL-28 melanoma
# [32] = tested on: SK-OV-3 ovarian
# [33] = tested on: RPMI-8226 leukemia
# [34] = tested on: EKVX NSCLC
# [35] = tested on: CCRF-CEM leukemia
# [36] = tested on: SK-MEL-5 melanoma
# [37] = tested on: NCI-H460 lung
# [38] = tested on: HCT-116 colon
# [39] = tested on: KM12 colon
# [40] = tested on: U251 CNS
# [41] = tested on: UO-31 renal
# [42] = tested on: MOLT-4 leukemia
# [43] = tested on: CAKI-1 renal
# [44] = tested on: MDA-MB-435
# [45] = tested on: HCC-2998 colon
# [46] = tested on: UACC-257 melanoma
# [47] = tested on: IGROV1 ovarian
# [48] = tested on: COLO 205 colon
# [49] = tested on: OVCAR-8 ovarian
# [50] = tested on: NCI-H522 lung
# [51] = tested on: A549 NSCLC
# [52] = tested on: MALME-3M melanoma
# [53] = tested on: RXF 393 renal
# [54] = tested on: HOP-92 NSCLC
# [55] = tested on: MCF7 breast
# [56] = tested on: SK-MEL-2 melanoma
structure (smiles),measurement,setting,value
Cc1sc2nc(-c3ccncc3)c(/C=N/N=C(N)N)n2c1C,GI50,[1],34.7 µM
same,TGI,[1],> 100 µM
same,GI50,[2],21.7 µM
same,TGI,[2],> 100 µM
same,GI50,[3],> 100 µM
same,TGI,[3],> 100 µM
same,GI50,[4],60.2 µM
same,TGI,[4],> 100 µM
same,GI50,[5],25.3 µM
same,TGI,[5],61.5 µM
same,GI50,[6],26.8 µM
same,TGI,[6],84.6 µM
same,GI50,[7],89.8 µM
same,TGI,[7],> 100 µM
same,GI50,[8],17.3 µM
same,TGI,[8],50.3 µM
same,GI50,[9],34.7 µM
same,TGI,[9],> 100 µM
same,GI50,[10],16.9 µM
same,TGI,[10],51.6 µM
same,GI50,[11],26 µM
same,TGI,[11],89.7 µM
same,GI50,[12],40 µM
same,TGI,[12],> 100 µM
same,GI50,[13],48.4 µM
same,TGI,[13],> 100 µM
same,GI50,[14],32.2 µM
same,TGI,[14],92.1 µM
same,GI50,[15],> 100 µM
same,TGI,[15],> 100 µM
same,GI50,[16],58.4 µM
same,TGI,[16],> 100 µM
same,GI50,[17],> 100 µM
same,TGI,[17],> 100 µM
same,GI50,[18],49.7 µM
same,TGI,[18],> 100 µM
same,GI50,[19],67.3 µM
same,TGI,[19],> 100 µM
same,GI50,[20],30.7 µM
same,TGI,[20],> 100 µM
same,GI50,[21],33.9 µM
same,TGI,[21],> 100 µM
same,GI50,[22],28.2 µM
same,TGI,[22],78 µM
same,GI50,[23],51.9 µM
same,TGI,[23],> 100 µM
same,GI50,[24],25.7 µM
same,TGI,[24],90.1 µM
same,GI50,[25],73.5 µM
same,TGI,[25],> 100 µM
same,GI50,[26],25.8 µM
same,TGI,[26],> 100 µM
same,GI50,[27],36.3 µM
same,TGI,[27],> 100 µM
same,GI50,[28],50.8 µM
same,TGI,[28],> 100 µM
same,GI50,[29],24.9 µM
same,TGI,[29],72.7 µM
same,GI50,[30],74.6 µM
same,TGI,[30],> 100 µM
same,GI50,[31],68.9 µM
same,TGI,[31],> 100 µM
same,GI50,[32],62.2 µM
same,TGI,[32],> 100 µM
same,GI50,[33],28 µM
same,TGI,[33],78.2 µM
same,GI50,[34],75.9 µM
same,TGI,[34],> 100 µM
same,GI50,[35],63 µM
same,TGI,[35],> 100 µM
same,GI50,[36],38.3 µM
same,TGI,[36],> 100 µM
same,GI50,[37],27.3 µM
same,TGI,[37],> 100 µM
same,GI50,[38],27.7 µM
same,TGI,[38],81.8 µM
same,GI50,[39],14.7 µM
same,TGI,[39],37.2 µM
same,GI50,[40],30.5 µM
same,TGI,[40],> 100 µM
same,GI50,[41],54.1 µM
same,TGI,[41],> 100 µM
same,GI50,[42],18.2 µM
same,TGI,[42],> 100 µM
same,GI50,[43],40.8 µM
same,TGI,[43],> 100 µM
same,GI50,[44],26.2 µM
same,TGI,[44],> 100 µM
COc1cc(NC(N)=NCCC(C)(C)Oc2ccc(C(F)(F)F)cc2)ncc1C#N,GI50,[1],1.69 µM
same,TGI,[1],3.46 µM
same,GI50,[3],1.65 µM
same,TGI,[3],3.07 µM
same,GI50,[4],1.62 µM
same,TGI,[4],3.11 µM
same,GI50,[5],1.75 µM
same,TGI,[5],3.21 µM
same,GI50,[7],1.55 µM
same,TGI,[7],3.02 µM
same,GI50,[8],1.78 µM
same,TGI,[8],3.18 µM
same,GI50,[45],1.58 µM
same,TGI,[45],3.01 µM
same,GI50,[10],1.85 µM
same,TGI,[10],3.35 µM
same,GI50,[11],1.68 µM
same,TGI,[11],3.17 µM
same,GI50,[46],1.7 µM
same,TGI,[46],3.11 µM
same,GI50,[12],1.64 µM
same,TGI,[12],3.03 µM
same,GI50,[13],1.43 µM
same,TGI,[13],2.81 µM
same,GI50,[47],1.8 µM
same,TGI,[47],3.48 µM
same,GI50,[14],1.61 µM
same,TGI,[14],3.14 µM
same,GI50,[15],1.54 µM
same,TGI,[15],2.91 µM
same,GI50,[16],1.42 µM
same,TGI,[16],2.82 µM
same,GI50,[17],1.66 µM
same,TGI,[17],3.24 µM
same,GI50,[18],1.7 µM
same,TGI,[18],3.06 µM
same,GI50,[19],1.58 µM
same,TGI,[19],3.07 µM
same,GI50,[48],1.58 µM
same,TGI,[48],3.06 µM
same,GI50,[20],1.56 µM
same,TGI,[20],3.29 µM
same,GI50,[21],1.75 µM
same,TGI,[21],3.2 µM
same,GI50,[49],1.79 µM
same,TGI,[49],3.54 µM
same,GI50,[50],1.47 µM
same,TGI,[50],2.9 µM
same,GI50,[22],1.6 µM
same,TGI,[22],3.01 µM
same,GI50,[51],1.73 µM
same,TGI,[51],3.18 µM
same,GI50,[23],1.8 µM
same,TGI,[23],3.26 µM
same,GI50,[24],1.72 µM
same,TGI,[24],3.31 µM
same,GI50,[25],1.81 µM
same,TGI,[25],3.38 µM
same,GI50,[26],1.8 µM
same,TGI,[26],3.23 µM
same,GI50,[27],1.84 µM
same,TGI,[27],3.3 µM
same,GI50,[28],1.72 µM
same,TGI,[28],3.12 µM
same,GI50,[29],1.57 µM
same,TGI,[29],2.99 µM
same,GI50,[52],1.81 µM
same,TGI,[52],3.44 µM
same,GI50,[30],1.88 µM
same,TGI,[30],3.36 µM
same,GI50,[31],1.83 µM
same,TGI,[31],3.23 µM
same,GI50,[32],1.84 µM
same,TGI,[32],3.26 µM
same,GI50,[34],1.45 µM
same,TGI,[34],2.85 µM
same,GI50,[53],1.68 µM
same,TGI,[53],3.11 µM
same,GI50,[36],1.58 µM
same,TGI,[36],2.93 µM
same,GI50,[37],1.72 µM
same,TGI,[37],3.39 µM
same,GI50,[38],1.46 µM
same,TGI,[38],2.83 µM
same,GI50,[39],1.68 µM
same,TGI,[39],3.17 µM
same,GI50,[40],1.79 µM
same,TGI,[40],3.22 µM
same,GI50,[54],1.38 µM
same,TGI,[54],2.8 µM
same,GI50,[55],1.61 µM
same,TGI,[55],3.18 µM
same,GI50,[41],1.48 µM
same,TGI,[41],2.85 µM
same,GI50,[56],1.79 µM
same,TGI,[56],3.27 µM
same,GI50,[43],1.55 µM
same,TGI,[43],2.9 µM
same,GI50,[44],1.73 µM
same,TGI,[44],3.17 µM

# — PubChem BioAssay (NCI)
